Where only a bound is given, the exact number is not on record here.

The values that follow come from patent US11440907B1 (Merck Patent GmbH, priority 2018, dated 2022).

What all share (assay type): cell-based
Assay [1] has as its system XBP1(u)-luciferase splicing reporter in HepG2 hepatoma cells. Briefly: HepG2 XBP1 reporter assay (XBP1(u)-Luc). As to conditions: Homo sapiens, 6 hours after compound addition; for IC50: Table 4; for EC50: Table 3, read-out: XBP1-luc HepG2 1 EC50. (In general: Reporter assays use an easily measured gene product as a stand-in for the process of interest.)
For assay [2], the system named is NCI-H929 (Multiple myeloma cells). Briefly: Cell viability (ATPLite) in NCI-H929. Conditions: Homo sapiens, 96 hours. On the procedure: (§1) Cells were removed from liquid nitrogen storage, thawed and expanded in appropriate growth media. Once expanded, cells were seeded in 384-well tissue culture treated plates at 500 cells per well. After 24 hours, cells were treated for either 0 hours or treated for 96 hours with a testing compound (at the concentrations of 100 nM and 2 uM). At the end of either 0 hours or 96 hours, cell status was analyzed using ATPLite (Perkin Elmer) to assess the biological response of cells to the testing compound.
(Cellular ATP, detected with luciferase, serves as a proxy for viable cell number.)

The subject of assay [3] is DU4475 (breast cancer cells). Briefly: Cell viability (ATPLite) in DU4475. Conditions: Homo sapiens, DU-4475, 96 hours. On the procedure:
as §1

Assay [4] concerns β-catenin-TCF-mediated reporter transcription activity in Colo 205 cells. Briefly: Colo 205 reporter assay (TCF/LEF promoter-driven firefly luciferase). Conditions: Homo sapiens; Colo 205 TCF/LEF luciferase reporter, 5 hours after compound addition, 384 well; read-out: Colo205 IC50.
Assay [5] relates to intracellular calcium flux in Colo-205 cells. Briefly: Calcium flux assay (FLIPR Calcium 5 Assay Kit, FLIPR3). As to conditions: Homo sapiens, 0.6 h, calcium flux measured over 36 minutes, read-out: Colo 205 Calcium Flux assay 384w Boston Ca assay FLIPR3 Colo EC50. On the procedure: Compounds described herein induced ER stress by causing intracellular calcium flux. Calcium flux was measured in Colo-205 cells using the FLIPR® Calcium 5 Assay Kit according to manufacturer's protocol (Molecular Devices, Cat. #R8186) on a FLIPR3 system (Molecular Devices). Calcium flux is measured over 36 minutes. The Colo-205 calcium flux assay data are summarized in Table 3: A<0.6 μM; 0.6 μM≤B<2.0 μM; 2.0 μM≤C<10.0 μM; D≥10.0 μM.
In general terms: Calcium flux is commonly read through the fluorescence of an indicator in the cells.

As usually defined, the IC50 is the concentration at which inhibition is half-maximal. On to `Cc1cc(N2CCCOCC2c2cc3c(cc2Cl)NCC3)nc(N)n1` (centres unmarked) [C-1], for which the IC50 in assay [1] was less than 600 nM; in assay [2] it was less than 1000 nM; in assay [3], less than 1000 nM.
For the compound `Cc1cc(N2CCCOCC2c2cc(F)c(C)cc2Cl)nc(N)n1` (centres unmarked) [C-2], the IC50 lay within 600 to 2000 nM in assay [1], 1000 to 10000 nM in assay [2] and 1000 to 10000 nM in assay [3].
With `Cc1cc(N2CCCOCC2c2cc(Cl)c(C)cc2Cl)nc(N)n1` (centres unmarked) [C-3], the IC50 in assay [1] is 600 to 2000 nM; in assay [2] it was 1000 to 10000 nM; in assay [3], 1000 to 10000 nM.
Take `Cc1cc(N2CCCOCC2c2cc(F)c(F)cc2Cl)nc(N)n1` (centres unmarked) [C-4]: the half-inhibitory concentration (IC50) in assay [1] lay within 600 to 2000 nM; in assay [2], 1000 to 10000 nM; in assay [3], 1000 to 10000 nM.
`Cc1cc(N2CCCOCC2c2cc3c(cc2Cl)OCC(=O)N3)nc(N)n1` (centres unmarked) [C-5]: the IC50 in assay [1] is less than 600 nM; in assay [2], less than 1000 nM; in assay [3], less than 1000 nM.
For the compound `Cc1cc(N2CCCOCC2c2cc3c(cc2Cl)OCCO3)nc(N)n1` (centres unmarked) [C-6], the results for the IC50 in assay [1], in assay [2] and in assay [3] were 600 to 2000 nM, 1000 to 10000 nM and less than 1000 nM, respectively.
Regarding `Cc1cc(N2CCCOCC2c2cc(Cl)c(O)cc2Cl)nc(N)n1` (centres unmarked) [C-7], the half-inhibitory concentration (IC50) in assay [1] lay in the range of 600 to 2000 nM; in assay [2], 1000 to 10000 nM; in assay [3] it was 1000 to 10000 nM.
In the case of `Cc1cc(N2CCCOCC2c2ccc(CS(C)(=O)=O)cc2F)nc(N)n1` (centres unmarked) [C-11, 4-[3-(2-Fluoro-4-methanesulfonylmethyl-phenyl)-[1,4]oxazepan-4-yl]-6-methyl-pyrimidin-2-ylamine], the half-maximal inhibitory concentration (IC50) in assay [1] is 600 to 2000 nM; in assay [2], less than 1000 nM; in assay [3], less than 1000 nM.
Turning to `Cc1cc(N2CCCOCC2c2cc(CS(C)(=O)=O)ccc2Cl)nc(N)n1` (centres unmarked) [C-12, 4-[3-(2-Chloro-5-methanesulfonylmethyl-phenyl)-[1,4]oxazepan-4-yl]-6-methyl-pyrimidin-2-ylamine], the IC50 in assay [1] was 600 to 2000 nM; in assay [2] it was 1000 to 10000 nM; in assay [3], less than 1000 nM.
In the case of `Cc1cc(N2CCCOCC2c2cc3c(cc2Cl)OCCCO3)nc(N)n1` (centres unmarked) [C-13], the half-maximal inhibitory concentration (IC50) was less than 600 nM in assay [1], 1000 to 10000 nM in assay [2] and less than 1000 nM in assay [3].
On to `COc1cc(C2COCCCN2c2cc(C)nc(N)n2)c(Cl)cc1O` (centres unmarked) [C-14], for which the half-maximal inhibitory concentration (IC50) in assay [1] was 600 to 2000 nM; in assay [2], 1000 to 10000 nM; in assay [3] it was less than 1000 nM.
Take `COc1cc(Cl)c(C2COCCCN2c2cc(C)nc(N)n2)cc1OC` (centres unmarked) [C-15]: the IC50 in assay [1] was 600 to 2000 nM; in assay [2] it was less than 1000 nM; in assay [3], less than 1000 nM.
Consider `Cc1cc(N2CCCOCC2c2cc(O)c(O)cc2Cl)nc(N)n1` (centres unmarked) [C-22], for which the half-inhibitory concentration (IC50) in assay [2] and in assay [3] was not below 25000 nM in each case.
As to `Cc1cc(N2CCCOCC2c2cc(F)c(-c3cccnc3)cc2Cl)nc(N)n1` (centres unmarked) [C-33], the IC50 in assay [2] and in assay [3] was 1000 to 10000 nM in each case.
Take `Cc1cc(N2CCCOCC2c2cc3c(cc2Cl)CCN3)nc(N)n1` (centres unmarked) [C-37]: the IC50 in assay [2] and in assay [3] was less than 1000 nM in each case.
On to `Cc1cc(N2CCCOC[C@H]2c2ccc(S(C)(=O)=O)cc2Cl)nc(N)n1` [C-155], for which the IC50 in assay [2] and in assay [3] was not below 25000 nM each time.
The EC50 is the midpoint of the concentration-response curve. Regarding `Cc1cc(N2CCCOCC2c2ccc(NC(=O)C3(O)CC3)cc2Cl)nc(N)n1` (centres unmarked) [I-303], in assay [4], the IC50 was 300 to 1000 nM. Also, the 50% effective concentration (EC50) in assay [1] and in assay [5] was less than 600 nM throughout.
As to `Cc1cc(N2CCCOCC2c2cc(N3CCCC3)ccc2Cl)nc(N)n1` (centres unmarked) [I-304], the IC50 in assay [4] was 300 to 1000 nM. Moreover, the 50% effective concentration (EC50) was 600 to 2000 nM in assay [1] and less than 600 nM in assay [5].
Consider `Cc1cc(N2CCCOCC2c2ccc(NC(=O)C3CC3)cc2Cl)nc(N)n1` (centres unmarked) [I-305], for which the IC50 in assay [4] lay within 300 to 1000 nM. Besides, the 50% effective concentration (EC50) in assay [1] and in assay [5] was less than 600 nM in each case.
Consider `CCC(=O)Nc1ccc(C2COCCCN2c2cc(C)nc(N)n2)c(Cl)c1` (centres unmarked) [I-306], for which the 50% inhibitory concentration (IC50) in assay [4] lay in the range of 300 to 1000 nM. For the same compound, the half-maximal effective concentration (EC50) in assay [1] and in assay [5] was less than 600 nM throughout.
Consider `Cc1nc(N)nc2c1-c1c(NC3COC3)ccc(Cl)c1C1COCCCN21` (centres unmarked) [I-309], for which the IC50 in assay [4] is less than 300 nM. The half-maximal effective concentration (EC50) in assay [1] and in assay [5] was less than 600 nM throughout.
